Source: publication PMC6271168, “Fumigant Toxicity of Oriental Sweetgum (Liquidambar orientalis) and Valerian (Valeriana wallichii) Essential Oils and Their Components, Including Their Acetylcholinesterase Inhibitory Activity, against Japanese Termites (Reticulitermes speratus)” (Molecules, 2014)
≈ marks a conversion by molar mass, not a printed value.

Biological target: T1, Japanese termite acetylcholinesterase (AChE)
T1 construct: gene AChE1; native; crude Triton X-100 extract (15,000 x g supernatant) of 50 whole adult termites, not purified
Experiment: modified Ellman assay, […] nm, probit analysis
Format: biochemical, Reticulitermes speratus
Conditions: acetylthiocholine iodide substrate; pH 7.8 extraction buffer; room temperature; 10 min pre-incubation; crude extract

C=C/C(C)=C\CC=C(C)C [compound 6, cis-Ocimene]
IC50: 0.131 mg/mL (≈ 962 µM)
